Among the data in US6875761B2 (Eisai Co., Ltd., priority 1997, dated 2005) are Ki values, retold here.

Counter-ions that a name gives are not always drawn.

The target of one test is T1, serotonin 1A receptor (Rattus norvegicus, UniProt P19327).
T1 construct: To the receptor fraction of the hippocampus were added a test compound and 0.5 nM of [^3H]; 8-hydroxy-dipropylaminotetralin; from tissue; host or cells: rat hippocampus membrane fraction
T1 sequence (P19327 1-422): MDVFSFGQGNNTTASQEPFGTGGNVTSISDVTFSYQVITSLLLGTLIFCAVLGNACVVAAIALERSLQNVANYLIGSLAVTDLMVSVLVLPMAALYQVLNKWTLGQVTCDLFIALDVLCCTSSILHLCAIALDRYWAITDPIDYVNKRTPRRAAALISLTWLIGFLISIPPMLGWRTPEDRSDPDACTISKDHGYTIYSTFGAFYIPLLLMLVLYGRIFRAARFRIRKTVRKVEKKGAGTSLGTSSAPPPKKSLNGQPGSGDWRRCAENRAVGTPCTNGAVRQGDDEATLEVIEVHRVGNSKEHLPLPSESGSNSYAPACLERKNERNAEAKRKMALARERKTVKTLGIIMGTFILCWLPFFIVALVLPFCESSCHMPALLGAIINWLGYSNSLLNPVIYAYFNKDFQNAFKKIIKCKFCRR
Put plainly: Binding test on [3H] 8-hydroxy-dipropylaminotetralin, hippocampus receptor fraction. The arrangement: species or system SD rats. The following applies: rat hippocampus receptor fraction, 0.5 nM [3H] 8-OH-DPAT, room temperature 30 min; read-out: 5HT1.

The target of the next test is T2, serotonin 2 receptor (Rattus norvegicus, UniProt P14842).
T2 construct: To the receptor fraction of the cerebral cortex were added a test compound and 0.3 nM of [^3H] ketanserin; from tissue; host or cells: rat cerebral cortex membrane fraction
Put plainly: Binding test on [3H] ketanserin, cerebral cortex receptor fraction. The following applies: 0.3 nM [3H] ketanserin, 37° C. 15 min, read-out: 5HT2. On the set-up: species or system SD rats.

T2 sequence (P14842 whole entry): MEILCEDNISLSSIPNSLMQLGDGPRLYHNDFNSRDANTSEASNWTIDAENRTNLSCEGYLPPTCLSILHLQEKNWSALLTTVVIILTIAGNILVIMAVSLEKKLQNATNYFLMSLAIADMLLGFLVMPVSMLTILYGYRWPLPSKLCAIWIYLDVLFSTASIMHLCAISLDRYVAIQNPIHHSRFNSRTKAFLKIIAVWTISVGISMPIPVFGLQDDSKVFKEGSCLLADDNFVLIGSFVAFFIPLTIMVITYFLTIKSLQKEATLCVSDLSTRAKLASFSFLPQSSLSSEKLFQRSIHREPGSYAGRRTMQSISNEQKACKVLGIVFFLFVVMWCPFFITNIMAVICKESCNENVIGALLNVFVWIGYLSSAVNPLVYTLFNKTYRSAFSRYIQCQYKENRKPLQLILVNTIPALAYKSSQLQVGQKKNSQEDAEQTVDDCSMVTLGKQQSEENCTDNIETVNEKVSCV

With `CCN1CCN(c2nc(-c3ccc(C4COCCO4)cc3)cc3ccccc23)CC1` (centres unmarked) [Example 395, 1-(4-Ethylpiperazin-1-yl)-3-[4-(1,4-Dioxan-2-yl)Phenyl]Isoquinoline Dihydrochloride], the Ki on serotonin 1A receptor was 0.0373 µM; at serotonin 2 receptor, 0.0048 µM.

For the compound `CCN1CCN(c2nc(-c3ccc(OCCCc4cccnc4)cc3)cc3ccccc23)CC1` [Example 157, 3-[4-[3-(3-pyridyl)propoxy]phenyl]-1-(4-ethylpiperazin-1-yl)isoquinoline hydrochloride], the Ki on serotonin 1A receptor came out at 0.0297 µM; on serotonin 2 receptor, 0.0049 µM.

Take `CCN1CCN(c2nc(/C=C/c3ccc(OC)cc3)cc3ccccc23)CC1` [Example 190, 1-(1-Ethylpiperazin-4-Yl)-3-[Trans-2-(4-Methoxyphenyl)Ethenyl]Isoquinoline Dihydrochloride]: the Ki on serotonin 1A receptor amounted to 0.035 µM; on serotonin 2 receptor, 0.00385 µM.

As to `CCN1CCN(c2nc(-c3cc(F)c(OCCF)c(F)c3)cc3ccccc23)CC1` [Example 371, 1-(4-ethylpiperazin-1-yl)-3-[3,5-difluoro-4-(2-fluoroethoxy)phenyl]isoquinoline dihydrochloride], the Ki on serotonin 1A receptor is 0.041 µM; at serotonin 2 receptor it was 0.0043 µM.

`CCN1CCN(c2nc(/C=C/c3ccc(OCCO)cc3)cc3ccoc23)CC1` [Example 307]: the Ki on serotonin 1A receptor amounted to 0.0077 µM; on serotonin 2 receptor, 0.0115 µM.

For `CCN1CCN(c2nc(-c3ccc(C(=O)NC4CCCC4)cc3)cc3ccsc23)CC1` [Example 453, 7-(4-ethylpiperazin-1-yl)-5-[4-(N-cyclopentylcarbamoyl)phenyl]thieno[2,3-c]pyridine dihydrochloride], the Ki is 0.0222 µM on serotonin 1A receptor and 0.0454 µM at serotonin 2 receptor.

For the compound `CCN1CCN(c2nc(-c3ccc(S(=O)(=O)NC)cc3)cc3ccccc23)CC1` [Example 361, 1-(4-ethylpiperazin-1-yl)-3-[4-(N-methylsulfamoyl)phenyl]isoquinoline dihydrochloride], the Ki was 0.0035 µM on serotonin 1A receptor and 0.0026 µM on serotonin 2 receptor.

On to `CCN1CCN(c2nc(-c3ccc(CC(C)(C)CO)cc3)cc3ccccc23)CC1` [Example 389, 1-(4-Ethylpiperazin-1-yl)-3-[4-(3-Hydroxy-2,2-Dimethylpropyl)Phenyl]Isoquinoline Oxalate], for which the Ki worked out at 0.0142 µM at serotonin 1A receptor and 0.0073 µM at serotonin 2 receptor.

As for `CCCC(O)c1ccc(-c2cc3sccc3c(N3CCN(CC)CC3)n2)cc1` (centres unmarked) [Example 283, 4-(4-ethylpiperazin-1-yl)-6-[4-1-hydroxybutyl)phenyl]thieno[3,2-c]pyridine oxalate], the Ki worked out at 0.00571 µM on serotonin 1A receptor and 0.00643 µM at serotonin 2 receptor.

As to `CCN1CCN(c2nc(-c3ccc(C(O)CO)cc3)cc3ccccc23)CC1` (centres unmarked) [Example 387, 1-(4-Ethylpiperazin-1-yl)-3-[4-(1,2-Dihydroxyethyl)Phenyl]Isoquinoline Dihydrochloride], the Ki on serotonin 1A receptor was found to be 0.0251 µM; at serotonin 2 receptor it was 0.0247 µM.

Take `CCN1CCN(c2nc(-c3ccc(OC)cc3)cc3ccsc23)CC1` [Example 459, 7-(4-ethylpiperazin-1-yl)-5-(4-methoxyphenyl)thieno[2,3-c]pyridine dihydrochloride]: the Ki on serotonin 1A receptor worked out at 0.108 µM; at serotonin 2 receptor, 0.0602 µM.

For the compound `CCN1CCN(c2nc(/C=C/c3ccc(CS(C)(=O)=O)cc3)cc3ccccc23)CC1` [Example 203, 3-[(E)-2-(4-Methylsulfonylmethylphenyl)Ethenyl]-1-(4-Ethylpiperazin-1-Yl)Isoquinoline Oxalate], the Ki on serotonin 1A receptor worked out at 0.0055 µM; at serotonin 2 receptor, 0.00052 µM.

In the case of `CN(C)CCC=C1c2ccccc2C=Cc2ccccc21` [Cyclobenzaprine, cyclobenzaprine hydrochloride, reference compound], the Ki on serotonin 1A receptor stood at 0.025 µM; at serotonin 2 receptor, 0.029 µM.

Take `CCN1CCN(c2nc(-c3ccc(N4CCOCC4)cn3)cc3ccccc23)CC1` [Example 148, 1-(4-ethylpiperazin-1-yl)-3-[5-(morpholin-4-yl)pyridin-2-yl]isoquinoline trihydrochloride]: the Ki on serotonin 1A receptor was determined as 0.00633 µM; on serotonin 2 receptor, 0.00785 µM.

Turning to `CCC(O)c1ccc(-c2cc3ccccc3c(N3CCN(CC)CC3)n2)s1` (centres unmarked) [Example 165, 1-(1-Ethylpiperazin-4-yl)-3-[2-(1-hydroxypropyl)thiophen-5-yl)isoquinoline hydrochloride], the Ki at serotonin 1A receptor amounted to 0.0326 µM; at serotonin 2 receptor, 0.0254 µM.

Regarding `CCN1CCN(c2nc(-c3ccc(OCC(C)(C)O)cc3)cc3sccc23)CC1` [Example 290, 6-[4-(2-methyl-2-hydroxypropoxy)phenyl]-4-(4-ethylpiperazin-1-yl)thieno[3,2-c]pyridine dihydrochloride], the Ki on serotonin 1A receptor stood at 0.0547 µM; on serotonin 2 receptor, 0.00135 µM.

Take `CCN1CCN(c2nc(-c3cccc(OCCO)c3)cc3ccoc23)CC1` [Example 298, 7-(1-ethylpiperazin-4-yl)-5-[3-(2-hydroxyethoxy)phenyl]furo[2,3-c]pyridine dihydrochloride]: the Ki at serotonin 1A receptor was 0.00172 µM; on serotonin 2 receptor, 0.00537 µM.

Regarding `CCN1CCN(c2nc(-c3ccc(OCCO)c(Cl)c3)cc3ccsc23)CC1` [Example 437, 7-(4-ethylpiperazin-1-yl)-5-[3-chloro-4-(2-hydroxyethoxy)phenyl]thieno[2,3-c]pyridine], the results for the Ki at serotonin 1A receptor and on serotonin 2 receptor were 0.0305 µM and 0.0181 µM, respectively.

With `CCN1CCN(c2nc(-c3ccc(OC[C@@H](C)O)cc3)cc3ccccc23)CC1` [Example 403, 1-(4-ethylpiperazin-1-yl)-3-[4-(2-hydroxypropoxy)phenyl]isoquinoline Dihydrochloride], the Ki on serotonin 1A receptor is 0.0284 µM; on serotonin 2 receptor, 0.00078 µM.

Take `CCN1CCN(c2nc(/C=C/c3ccccc3OCCO)cc3ccccc23)CC1` [Example 194, 1-(1-Ethylpiperazin-4-Yl)-3-[trans-2-(2-Hydroxyethoxyphenyl)Ethenyl]Isoquinoline Oxalate]: the Ki stood at 0.0112 µM at serotonin 1A receptor and 0.0337 µM on serotonin 2 receptor.

Take `CCN1CCN(c2nc(-c3ccc(C(O)C4CCCC4)cc3)cc3ccsc23)CC1` (centres unmarked) [Example 458, 7-(4-ethylpiperazin-1-yl)-5-[4-(cyclopentylhydroxymethyl)phenyl]thieno[2,3-c]pyridine dihydrochloride]: the Ki on serotonin 1A receptor turned out to be 0.0754 µM; on serotonin 2 receptor, 0.0931 µM.

Consider `CCNC(=O)c1ccc(-c2cc3ccccc3c(N3CCN(CC)CC3)n2)cc1` [Example 364, 1-(4-ethylpiperazin-1-yl)-3-[4-(N-ethylcarbamoyl)phenyl]isoquinoline dihydrochloride], for which the Ki at serotonin 1A receptor stood at 0.0217 µM; on serotonin 2 receptor, 0.0039 µM.

Consider `CCN1CCN(c2nc(C=C(COC)c3ccccc3)cc3ccccc23)CC1` (stereo in doubt) [Example 208, 3-[(E)-2-Methoxymethyl-2-Phenylethenyl]-1-(4-Ethylpiperazin-1-Yl)Isoquinoline Oxalate], for which the Ki on serotonin 1A receptor worked out at 0.0916 µM; at serotonin 2 receptor, 0.00762 µM.

Consider `CCN1CCN(c2nc(/C=C/c3ccccc3F)cc3ccccc23)CC1` [Example 197, 1-(1-Ethylpiperazin-4-Yl)-3-[Trans-2-(2-Fluorophenyl)Ethenyl]isoquinoline Oxalate], for which the Ki at serotonin 1A receptor amounted to 0.0707 µM; at serotonin 2 receptor, 0.00426 µM.

In the case of `CCN1CCN(c2nc(C#CC(=O)c3ccccc3)cc3ccccc23)CC1` [Example 184, 1-(1-Ethylpiperazin-4-Yl)-3-Benzoylethynylisoquinoline Oxalate], the Ki worked out at 0.0309 µM at serotonin 1A receptor and 0.122 µM at serotonin 2 receptor.

In the case of `CCN1CCN(c2nc(-c3ccc(N4CCOCC4)nc3)cc3ccsc23)CC1` [Example 263, 5-[2-(4-morpholinyl)pyridin-5-yl]-7-(4-ethylpiperazin-1-yl)thieno[2,3-c]pyridine Hydrochloride], the Ki at serotonin 1A receptor came to 0.00642 µM; on serotonin 2 receptor it was 0.00089 µM.

Take `CCN1CCN(c2nc(-c3ccc(OCCCC(C)(C)O)cc3)cc3sccc23)CC1` [Example 292, 6-[4-(4-methyl-4-hydroxypentyloxy)phenyl]-4-(4-ethylpiperazin-1-yl)thieno[3,2-c]pyridine]: the Ki was determined as 0.0686 µM on serotonin 1A receptor and 0.0225 µM at serotonin 2 receptor.

`CCN1CCN(c2nc(-c3ccc(NC(C)=O)cc3)cc3ccccc23)CC1` [Example 68, 3-(4-Acetamidephenyl)-1-(4-Ethylpiperazin-1-Yl)Isoquinoline Hydrochloride]: the values for the Ki on serotonin 1A receptor and on serotonin 2 receptor were 0.0309 µM and 0.0941 µM, respectively.

For the compound `CCN1CCN(c2nc(-c3ccc(C(F)(F)F)cc3)cc3ccccc23)CC1` [Example 4, 1-(4-ethylpiperazin-1-yl)-3-(4-trifluoromethylphenyl)isoquinoline Dihydrochloride], the Ki on serotonin 1A receptor is 0.071 µM; on serotonin 2 receptor, 0.0749 µM.

As to `CCCNC(=O)c1ccc(-c2cc3ccccc3c(N3CCN(CC)CC3)n2)cc1F` [Example 384, 1-(4-Ethylpiperazin-1-yl)-3-[4-(N-Propylcarbamoyl)-3-Fluorophenyl]Isoquinoline Dihydrochloride], the Ki on serotonin 1A receptor was 0.0273 µM; at serotonin 2 receptor, 0.0001 µM.

Consider `CCN1CCN(c2nc(-c3ccc(C(F)CCO)cc3)cc3ccccc23)CC1` (centres unmarked) [Example 27, 1-(1-Ethylpiperazin-4-yl)-3-[4-(3-hydroxy-1-fluoropropyl)phenyl]isoquinoline], for which the Ki turned out to be 0.0294 µM at serotonin 1A receptor and 0.00247 µM on serotonin 2 receptor.
